The values that follow come from article PMC3055678 (ACS Medicinal Chemistry Letters, 2011).

Each structure is given as a SMILES string.

One test addresses panel of 402 kinases. Description: Ambit KINOMEscan ATP-site competition binding, panel of 402 kinases. The conditions noted are these: concentration of 10 μM, Erk5 = BMK1.
Test [1] addresses T1, BMK1 (Homo sapiens, UniProt Q13164). Description: Ambit KINOMEscan single-point score. The format is binding. Conditions: concentration of 10 μM.
In test [2] the target is T1, BMK1. Description: EGF-stimulated BMK1 autophosphorylation in HeLa cells. Conditions: concentration of 1 μM.

T1 sequence (Q13164 whole entry): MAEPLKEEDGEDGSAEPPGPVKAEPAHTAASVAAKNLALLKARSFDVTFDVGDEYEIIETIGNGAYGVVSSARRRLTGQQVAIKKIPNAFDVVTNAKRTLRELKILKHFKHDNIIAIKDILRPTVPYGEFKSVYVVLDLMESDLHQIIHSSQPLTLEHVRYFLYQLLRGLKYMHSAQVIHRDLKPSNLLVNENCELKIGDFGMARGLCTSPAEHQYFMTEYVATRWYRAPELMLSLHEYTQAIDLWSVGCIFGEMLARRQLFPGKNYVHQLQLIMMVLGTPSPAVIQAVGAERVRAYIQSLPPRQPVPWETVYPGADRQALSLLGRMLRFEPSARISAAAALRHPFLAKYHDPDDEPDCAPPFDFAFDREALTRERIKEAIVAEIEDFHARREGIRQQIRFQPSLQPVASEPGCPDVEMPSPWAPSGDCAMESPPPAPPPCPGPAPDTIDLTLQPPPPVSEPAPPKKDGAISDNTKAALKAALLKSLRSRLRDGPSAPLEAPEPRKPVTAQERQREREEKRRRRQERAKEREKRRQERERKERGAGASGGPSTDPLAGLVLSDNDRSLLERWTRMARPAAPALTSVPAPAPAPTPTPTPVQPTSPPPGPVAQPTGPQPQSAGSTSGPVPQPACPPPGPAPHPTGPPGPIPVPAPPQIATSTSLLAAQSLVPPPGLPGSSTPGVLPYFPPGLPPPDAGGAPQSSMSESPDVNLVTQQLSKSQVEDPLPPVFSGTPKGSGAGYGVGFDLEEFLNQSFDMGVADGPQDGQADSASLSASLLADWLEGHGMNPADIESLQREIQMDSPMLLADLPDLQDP

As to `COc1cc(N2CCN(C)CC2)ccc1Nc1ncc2c(n1)N(C)c1ccccc1C(=O)N2` [compound 10], the “kinase hits (kinases that exhibited greater than 95% displacement from an immobilized ligand)” value at panel of 402 kinases is reported as “ABL1(F317I), BRK, C-FMS, DCAMKL1, DCAMKL2, ERK5, FRK, GAK, KIT(L576P), MYLK4, TNK1, TNK2”. Further, on BMK1 [1], the “ambit score against BMK1” value worked out at 0.5.
For the compound `COc1cc(N2CCN(C)CC2)ccc1Nc1ncc2c(n1)N(C)c1ccccc1C(=O)N2C` [compound 11], the “inhibition of BMK1 autophosphorylation” value at BMK1 [2] is given as “significantly inhibited”. On panel of 402 kinases, the “kinase hits (kinases that exhibited greater than 95% displacement from an immobilized ligand)” value was “DCAMKL1, DCAMKL2, ERK5, FRK, MNK2, PKD1, PKD2, RSK4∼b, TAO1, TAO3, TNK1, TNK2, ULK1, ULK2”. Also, the “ambit score against BMK1” value on BMK1 [1] amounted to 0.
